Measurements reported in patent US4843066A, “Novel adenosine derivatives and pharmaceutical composition containing them as an active ingredient” (priority 1986, dated 1989).
Where two headings read alike, the source gives them in different places.

Experiments:
[1] = system: spontaneously hypertensive rats (SHR); experiment: Antihypertensive activity (blood pressure after oral administration); format: in vivo; details: for inhibition in vivo at 200 mg/kg / inhibition in vivo at 100 mg/kg / inhibition in vivo at 10 mg/kg / inhibition in vivo at 30 mg/kg: Rattus norvegicus, decrease vs before; for inhibition in vivo at 200 mg/kg / Blood pressure 2 hrs / Blood pressure 4 hrs / Blood pressure 6 hrs / inhibition in vivo at 100 mg/kg / inhibition in vivo at 10 mg/kg / inhibition in vivo at 30 mg/kg: SHR; for Blood pressure 2 hrs: 2 hrs after administration; for Blood pressure 2 hrs / Blood pressure 4 hrs / Blood pressure 6 hrs: mean ± S.E.; for Blood pressure 4 hrs: 4 hrs after administration; for Blood pressure 6 hrs: 6 hrs after administration
Experimental: The test compounds, which were dissolved or suspended in 0.5% C.M.C. aqueous solution, were orally administered to groups of 3 or 4 spontaneously hypertensive rats (SHR), weighing about 300 to 400 g. Blood pressure was measured before and 2, 4 and 6 hours after the administration.

[2] = in vivo
in vivo = details: mouse, oral, in 0.5% C.M.C., ddY male mice, death rate for 7 days
[3] = oral 200 mg/kg, 2 hrs, read-out: Blood pressure 2 hrs [Decrease]
[4] = oral 200 mg/kg, 4 hrs, read-out: Blood pressure 4 hrs [Decrease]
[5] = oral 200 mg/kg, 6 hrs, read-out: Blood pressure 6 hrs [Decrease]
[6] = oral 100 mg/kg, 2 hrs, read-out: Blood pressure 2 hrs [Decrease]
[7] = oral 100 mg/kg, 4 hrs, read-out: Blood pressure 4 hrs [Decrease]
[8] = oral 100 mg/kg, 6 hrs, read-out: Blood pressure 6 hrs [Decrease]
[9] = oral 10 mg/kg, 2 hrs, read-out: Blood pressure 2 hrs [Decrease]
[10] = oral 10 mg/kg, 4 hrs, read-out: Blood pressure 4 hrs [Decrease]
[11] = oral 10 mg/kg, 6 hrs, read-out: Blood pressure 6 hrs [Decrease]
[12] = oral 30 mg/kg, 2 hrs, read-out: Blood pressure 2 hrs [Decrease]
[13] = oral 30 mg/kg, 4 hrs, read-out: Blood pressure 4 hrs [Decrease]
[14] = oral 30 mg/kg, 6 hrs, read-out: Blood pressure 6 hrs [Decrease]

SMILES: Nc1ncnc2c1ncn2[C@@H]1O[C@H](CO)[C@@H](O)[C@H]1O [Adenosine, adenosine]
- inhibition in vivo at 200 mg/kg [1, 3]: -6.1%
- inhibition in vivo at 200 mg/kg [1, 4]: 1.8%
- inhibition in vivo at 200 mg/kg [1, 5]: -3.2%
- Blood pressure 2 hrs ([1]; oral 200 mg/kg): 202 ± 12 mmHg
- Blood pressure 4 hrs ([1]; oral 200 mg/kg): 187 ± 3 mmHg
- Blood pressure 6 hrs ([1]; oral 200 mg/kg): 198 ± 4 mmHg
- hypotensive effect (in words) ([1]; oral administration): does not decrease blood pressure
- bradycardia (side effect) [2]: Bradycardia was observed

SMILES: CO[C@@H]1[C@H](O)[C@@H](CO)O[C@H]1n1cnc2c(N)ncnc21 [Compound 1, 2'-O-methyladenosine]
- inhibition in vivo at 200 mg/kg [1, 3]: 53.2%
- inhibition in vivo at 200 mg/kg [1, 4]: 45.8%
- inhibition in vivo at 200 mg/kg [1, 5]: 42.8%
- Blood pressure 2 hrs ([1]; oral 200 mg/kg): 103 ± 21 mmHg
- Blood pressure 4 hrs ([1]; oral 200 mg/kg): 121 ± 32 mmHg
- Blood pressure 6 hrs ([1]; oral 200 mg/kg): 128 ± 41 mmHg
- LD50 at 168 h (in vivo): > 2000 mg/kg

SMILES: CO[C@H]1[C@@H](O)[C@H](n2cnc3c(N)ncnc32)O[C@@H]1CO [Compound 2, 3'-O-methyladenosine]
- inhibition in vivo at 200 mg/kg [1, 3]: 41.2%
- inhibition in vivo at 200 mg/kg [1, 4]: 29%
- inhibition in vivo at 200 mg/kg [1, 5]: 27.2%
- Blood pressure 2 hrs ([1]; oral 200 mg/kg): 135 ± 28 mmHg
- Blood pressure 4 hrs ([1]; oral 200 mg/kg): 163 ± 40 mmHg
- Blood pressure 6 hrs ([1]; oral 200 mg/kg): 167 ± 47 mmHg
- LD50 at 168 h (in vivo): > 2000 mg/kg

SMILES: CCO[C@@H]1[C@H](O)[C@@H](CO)O[C@H]1n1cnc2c(N)ncnc21 [Compound 3, 2'-O-ethyladenosine]
- inhibition in vivo at 100 mg/kg [1, 6]: 52.2%
- inhibition in vivo at 100 mg/kg [1, 7]: 49.5%
- inhibition in vivo at 100 mg/kg [1, 8]: 47.3%
- Blood pressure 2 hrs ([1]; oral 100 mg/kg): 102 ± 15 mmHg
- Blood pressure 4 hrs ([1]; oral 100 mg/kg): 106 ± 20 mmHg
- Blood pressure 6 hrs ([1]; oral 100 mg/kg): 111 ± 26 mmHg
- LD50 at 168 h (in vivo): 750 to 1000 mg/kg

SMILES: CO[C@@H]1[C@H](O)[C@@H](CO)O[C@H]1n1cnc2c(N)nc(C)nc21 [Compound 5, 2,2'-O-dimethyladenosine]
- inhibition in vivo at 10 mg/kg [1, 9]: 40.2%
- inhibition in vivo at 10 mg/kg [1, 10]: 26.5%
- inhibition in vivo at 10 mg/kg [1, 11]: 12.7%
- Blood pressure 2 hrs ([1]; oral 10 mg/kg): 131 ± 6 mmHg
- Blood pressure 4 hrs ([1]; oral 10 mg/kg): 161 ± 11 mmHg
- Blood pressure 6 hrs ([1]; oral 10 mg/kg): 193 ± 24 mmHg
- LD50 at 168 h (in vivo): 540 mg/kg

SMILES: CCO[C@@H]1[C@H](O)[C@@H](CO)O[C@H]1n1cnc2c(N)nc(C)nc21 [Compound 9, 2-methyl-2'-O-ethyladenosine]
- inhibition in vivo at 30 mg/kg [1, 12]: 23.6%
- inhibition in vivo at 30 mg/kg [1, 13]: 10.7%
- inhibition in vivo at 30 mg/kg [1, 14]: 13.5%
- Blood pressure 2 hrs ([1]; oral 30 mg/kg): 169 ± 7 mmHg
- Blood pressure 4 hrs ([1]; oral 30 mg/kg): 197 ± 5 mmHg
- Blood pressure 6 hrs ([1]; oral 30 mg/kg): 191 ± 9 mmHg
- LD50 at 168 h (in vivo): 500 to 1000 mg/kg

SMILES: COC[C@H]1O[C@@H](n2cnc3c(N)ncnc32)[C@H](O)[C@@H]1O [Compound 11, 5'-O-methyladenosine]
- inhibition in vivo at 30 mg/kg [1, 12]: 18.2%
- inhibition in vivo at 30 mg/kg [1, 13]: 5.9%
- inhibition in vivo at 30 mg/kg [1, 14]: 6.6%
- Blood pressure 2 hrs ([1]; oral 30 mg/kg): 189 ± 3 mmHg
- Blood pressure 4 hrs ([1]; oral 30 mg/kg): 206 ± 10 mmHg
- Blood pressure 6 hrs ([1]; oral 30 mg/kg): 204 ± 9 mmHg
- LD50 at 168 h (in vivo): 800 mg/kg

SMILES: COC[C@H]1O[C@@H](n2cnc3c(N)nc(C)nc32)[C@H](O)[C@@H]1O [Compound 15, 2,5'-O-dimethyladenosine]
- inhibition in vivo at 10 mg/kg [1, 9]: 35.2%
- inhibition in vivo at 10 mg/kg [1, 10]: 17.7%
- inhibition in vivo at 10 mg/kg [1, 11]: 9.1%
- Blood pressure 2 hrs ([1]; oral 10 mg/kg): 154 ± 13 mmHg
- Blood pressure 4 hrs ([1]; oral 10 mg/kg): 195 ± 22 mmHg
- Blood pressure 6 hrs ([1]; oral 10 mg/kg): 215 ± 5 mmHg
- LD50 at 168 h (in vivo): 500 to 1000 mg/kg

SMILES: CNc1ncnc2c1ncn2[C@@H]1O[C@H](CO)[C@@H](O)[C@H]1OC [Compound 17, N^6-2'-O-dimethyladenosine]
- inhibition in vivo at 30 mg/kg [1, 12]: 17.1%
- inhibition in vivo at 30 mg/kg [1, 13]: 11.7%
- inhibition in vivo at 30 mg/kg [1, 14]: 14.1%
- Blood pressure 2 hrs ([1]; oral 30 mg/kg): 192 ± 15 mmHg
- Blood pressure 4 hrs ([1]; oral 30 mg/kg): 204 ± 5 mmHg
- Blood pressure 6 hrs ([1]; oral 30 mg/kg): 199 ± 8 mmHg

SMILES: CNc1ncnc2c1ncn2[C@@H]1O[C@H](COC)[C@@H](O)[C@H]1O [Compound 19, N^6-5'-O-dimethyladenosine]
- inhibition in vivo at 30 mg/kg [1, 12]: 43%
- inhibition in vivo at 30 mg/kg [1, 13]: 27.1%
- inhibition in vivo at 30 mg/kg [1, 14]: 26.3%
- Blood pressure 2 hrs ([1]; oral 30 mg/kg): 122 ± 8 mmHg
- Blood pressure 4 hrs ([1]; oral 30 mg/kg): 155 ± 7 mmHg
- Blood pressure 6 hrs ([1]; oral 30 mg/kg): 157 ± 12 mmHg
- LD50 at 168 h (in vivo): 1300 mg/kg

SMILES: CNc1nc(C)nc2c1ncn2[C@@H]1O[C@H](CO)[C@@H](O)[C@H]1OC [Compound 21, 2,N^6,2'-O-trimethyladenosine]
- inhibition in vivo at 30 mg/kg [1, 12]: 23.9%
- inhibition in vivo at 30 mg/kg [1, 13]: 16.9%
- inhibition in vivo at 30 mg/kg [1, 14]: 10.8%
- Blood pressure 2 hrs ([1]; oral 30 mg/kg): 159 ± 20 mmHg
- Blood pressure 4 hrs ([1]; oral 30 mg/kg): 172 ± 7 mmHg
- Blood pressure 6 hrs ([1]; oral 30 mg/kg): 188 ± 8 mmHg
- LD50 at 168 h (in vivo): ~400 mg/kg

SMILES: CCO[C@@H]1[C@H](O)[C@@H](CO)O[C@H]1n1cnc2c(NC)nc(C)nc21 [Compound 22, 2,N^6-dimethyl-2'-O-ethyladenosine]
- inhibition in vivo at 10 mg/kg [1, 9]: 25.8%
- inhibition in vivo at 10 mg/kg [1, 10]: 18.8%
- inhibition in vivo at 10 mg/kg [1, 11]: 13.1%
- Blood pressure 2 hrs ([1]; oral 10 mg/kg): 168 ± 6 mmHg
- Blood pressure 4 hrs ([1]; oral 10 mg/kg): 185 ± 7 mmHg
- Blood pressure 6 hrs ([1]; oral 10 mg/kg): 197 ± 3 mmHg
- LD50 at 168 h (in vivo): ~400 mg/kg

SMILES: CNc1nc(C)nc2c1ncn2[C@@H]1O[C@H](COC)[C@@H](O)[C@H]1O [Compound 24, 2,N^6,5'-O-trimethyladenosine]
- inhibition in vivo at 10 mg/kg [1, 9]: 43.3%
- inhibition in vivo at 10 mg/kg [1, 10]: 27%
- inhibition in vivo at 10 mg/kg [1, 11]: 23%
- Blood pressure 2 hrs ([1]; oral 10 mg/kg): 128 ± 7 mmHg
- Blood pressure 4 hrs ([1]; oral 10 mg/kg): 165 ± 7 mmHg
- Blood pressure 6 hrs ([1]; oral 10 mg/kg): 174 ± 4 mmHg
- LD50 at 168 h (in vivo): 1320 mg/kg

SMILES: CO[C@@H]1[C@H](O)[C@@H](CO)O[C@H]1n1cnc2c(N)nc(Cl)nc21 [Compound 27, 2-chloro-2'-O-methyladenosine]
- inhibition in vivo at 100 mg/kg [1, 6]: 68.4%
- inhibition in vivo at 100 mg/kg [1, 7]: 64.8%
- inhibition in vivo at 100 mg/kg [1, 8]: 66.9%
- Blood pressure 2 hrs ([1]; oral 100 mg/kg): 70 ± 10 mmHg
- Blood pressure 4 hrs ([1]; oral 100 mg/kg): 78 ± 8 mmHg
- Blood pressure 6 hrs ([1]; oral 100 mg/kg): 73 ± 16 mmHg
- LD50 at 168 h (in vivo): ~400 mg/kg

SMILES: CO[C@@H]1[C@H](O)[C@@H](CO)O[C@H]1n1cnc2c(N)nc(F)nc21 [Compound 29, 2-fluoro-2'-O-methyladenosine]
- inhibition in vivo at 30 mg/kg [1, 12]: 45.9%
- inhibition in vivo at 30 mg/kg [1, 13]: 19.8%
- inhibition in vivo at 30 mg/kg [1, 14]: 16.4%
- Blood pressure 2 hrs ([1]; oral 30 mg/kg): 131 ± 4 mmHg
- Blood pressure 4 hrs ([1]; oral 30 mg/kg): 195 ± 5 mmHg
- Blood pressure 6 hrs ([1]; oral 30 mg/kg): 204 ± 3 mmHg
- LD50 at 168 h (in vivo): > 2000 mg/kg
